Where two headings read alike, the source gives them in different places.
Target: T1, Gal-1 (Homo sapiens, UniProt P09382)
T1 construct: made in house; host or cells: E. coli BL21(DE3)
Test: Pull-down assay with immobilized protein and LSM libraries
Format: binding
Procedure: Pull-down assays with immobilized test proteins and foldameric LSM libraries were carried out. Proteins were equilibrated with LSM probes, and equilibrium bound fractions (FB) were determined from the unbound fractions measured by HPLC-MS methods. Hits were corrected with background binding of the resin. The protocol allowed all binding events to equilibrate irrespective of affinity, specificity, and binding kinetics. This was essential to judge overall druggability and promiscuity. Importantly, the concentration of protein and the total concentration of foldameric LSMs were equimolar, which minimized competition between the probes. This experimental setup approximated independent binding of individual library members. Results were visualized as heat maps of dissociation constants (Fig. 3).
Pull-down assay and data analysis
Pull-down assay. LSM sublibraries were screened separately as previously described.(2) Experiments were performed in the following buffers: (i) 20 mM pH 7.4 HEPES, 150 mM NaCl, 5 mM CaCl2 for CaM; (ii) 50 mM pH 7.4 HEPES, 150 mM NaCl, 1 mM TCEP, 1 mM CaCl2 for S100 proteins; (iii) 20 mM pH 7.4 HEPES, 150 mM NaCl, 1 mM TCEP for Gal-1 and (iv) 20 mM pH 7.4 HEPES, 150 mM NaCl for RecQ-WH. Assays were performed in paper filter spin cups (Thermo Scientific) with sample volumes of 100 µl. Hexahistidine-tagged proteins were immobilized on previously washed Co-NTA resin (TALON, Takara Bio USA, Inc., Mountain View, CA) in 64 µM final concentration. LSM sublibrary was added, in which each of the 64 library members were used at a concentration of 1 µM. Samples were incubated at room temperature for 30 min with shaking at 100 rpm. Then, samples were centrifuged at 1000 rpm for 2 min and washed with 100 µl pull-down buffer to remove unbound compounds.
The control experiments were performed using the same compounds and the resin but without the immobilized protein. In case of competitive assays, competitor peptides were added to LSM sublibrary samples in 200 µM final concentration. In the case of Gal-1, lactose (competitor) was used in a concentration of 10 mM. Experiments were performed at least twice. Mean […]
LC-MS methods and parameters. HPLC/ESI-MS analysis was used to characterize the samples from the pull-down assay. LC-MS analysis was performed with a Thermo Scientific Dionex UltiMate 3000 HPLC system interfaced to an LTQ ion trap mass spectrometer (Thermo Electron Corp., San Jose, CA, USA). Samples were injected onto an Aeris Widepore XB-C18 (250 x 4.6 mm) analytical HPLC column using gradient elution 5-80 % solution B during 25 minutes. For pull-down samples, eluent composition was 0.1% acetic acid in distilled water (Solution A) and 0.1% acetic acid in acetonitrile (solution B). Mass spectra were acquired in full scan mode from 200 to 2000 m/z range. For overlapping peaks, selective reaction monitoring (SRM) was […]
MS data analysis. Thermo Xcalibur 2.2 software was used for peak identification and integration. The majority of the foldameric fragments could be resolved independently via HPLC-MS/MS measurements based on molecular weight, MS fragmentation pattern and retention time. Peaks of some foldamers with β3-hIle or β3-hLeu in position R2 could not be resolved, these were integrated and averaged. In the processing method, each sample component was associated to a chromatographic peak based on previously identified mass (m/z) and retention time (ref (2) and Table S7-10). Using ICIS peak detection algorithm, the general detection and integration criteria were: smoothing points: 5, baseline window: 80, area noise factor: 5, peak noise factor: 10. Using these processing setups, all raw data files were reprocessed together and analyzed. Errors in peak identification during the automatic processing were corrected manually.
Calculation of the discussed parameters
1. Bound fractions (FB.) were calculated from the HPLC-MS intensity loss of the LSM probes compared to the control where no protein was immobilized to the resin: […]

[1] = read-out: KD estimated by pull-down experiments
[2] = H12 library, 1:1 binding assumed, read-out: Surface mapping KD (apparent)

T1 sequence (P09382 whole entry): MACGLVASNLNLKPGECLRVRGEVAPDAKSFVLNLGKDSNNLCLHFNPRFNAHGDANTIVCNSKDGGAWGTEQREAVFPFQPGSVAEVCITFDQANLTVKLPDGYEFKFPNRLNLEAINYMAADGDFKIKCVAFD

Row | Compound | Kd [1] [µM] | Kd [2] [µM]
1 | NC(=O)[C@H]1CCCC[C@@H]1NC(=O)C[C@H](Cc1c[nH]c2ccccc12)NC(=O)[C@H]1CCCC[C@@H]1NC(=O)[C@H]1CCCC[C@@H]1NC(=O)C[C@H](Cc1c[nH]c2ccccc12)NC(=O)[C@H]1CCCC[C@@H]1N [1b] | 30 to 40 | 
2 | NC(=O)[C@H]1CCCC[C@@H]1NC(=O)C[C@H](Cc1ccccc1)NC(=O)[C@H]1CCCC[C@@H]1NC(=O)[C@H]1CCCC[C@@H]1NC(=O)C[C@H](Cc1c[nH]c2ccccc12)NC(=O)[C@H]1CCCC[C@@H]1N [12b] | 30 to 40 | 
3 | C[C@@H](CC(=O)N[C@H]1CCC[C@@H]1C(=O)N[C@H]1CCC[C@@H]1C(=O)N[C@@H](CC(=O)O)CC(=O)N[C@H]1CCC[C@@H]1C(=O)N[C@H]1CCC[C@@H]1C(N)=O)NC(=O)[C@H]1CCC[C@@H]1NC(=O)[C@H]1CCC[C@@H]1N [H12 AD] |  | 438
4 | C[C@@H](CC(=O)N[C@H]1CCC[C@@H]1C(=O)N[C@H]1CCC[C@@H]1C(=O)N[C@@H](CCC(=O)O)CC(=O)N[C@H]1CCC[C@@H]1C(=O)N[C@H]1CCC[C@@H]1C(N)=O)NC(=O)[C@H]1CCC[C@@H]1NC(=O)[C@H]1CCC[C@@H]1N [H12 AE] |  | 388
5 | C[C@@H](CC(=O)N[C@H]1CCC[C@@H]1C(=O)N[C@H]1CCC[C@@H]1C(=O)N[C@@H](CC(N)=O)CC(=O)N[C@H]1CCC[C@@H]1C(=O)N[C@H]1CCC[C@@H]1C(N)=O)NC(=O)[C@H]1CCC[C@@H]1NC(=O)[C@H]1CCC[C@@H]1N [H12 AN] |  | 330
6 | C[C@@H](CC(=O)N[C@H]1CCC[C@@H]1C(=O)N[C@H]1CCC[C@@H]1C(=O)N[C@@H](CCC(N)=O)CC(=O)N[C@H]1CCC[C@@H]1C(=O)N[C@H]1CCC[C@@H]1C(N)=O)NC(=O)[C@H]1CCC[C@@H]1NC(=O)[C@H]1CCC[C@@H]1N [H12 AQ] |  | 456
7 | C[C@@H](CC(=O)N[C@H]1CCC[C@@H]1C(=O)N[C@H]1CCC[C@@H]1C(=O)N[C@@H](CO)CC(=O)N[C@H]1CCC[C@@H]1C(=O)N[C@H]1CCC[C@@H]1C(N)=O)NC(=O)[C@H]1CCC[C@@H]1NC(=O)[C@H]1CCC[C@@H]1N [H12 AS] |  | 307
8 | CC(C)[C@@H](CC(=O)N[C@H]1CCC[C@@H]1C(=O)N[C@H]1CCC[C@@H]1C(N)=O)NC(=O)[C@H]1CCC[C@@H]1NC(=O)[C@H]1CCC[C@@H]1NC(=O)C[C@H](C)NC(=O)[C@H]1CCC[C@@H]1NC(=O)[C@H]1CCC[C@@H]1N [H12 AV] |  | 491
9 | C[C@@H](CC(=O)N[C@H]1CCC[C@@H]1C(=O)N[C@H]1CCC[C@@H]1C(N)=O)NC(=O)[C@H]1CCC[C@@H]1NC(=O)[C@H]1CCC[C@@H]1NC(=O)C[C@H](CC(=O)O)NC(=O)[C@H]1CCC[C@@H]1NC(=O)[C@H]1CCC[C@@H]1N [H12 DA] |  | 248
10 | NC(=O)[C@H]1CCC[C@@H]1NC(=O)[C@H]1CCC[C@@H]1NC(=O)C[C@H](CC(=O)O)NC(=O)[C@H]1CCC[C@@H]1NC(=O)[C@H]1CCC[C@@H]1NC(=O)C[C@H](CC(=O)O)NC(=O)[C@H]1CCC[C@@H]1NC(=O)[C@H]1CCC[C@@H]1N [H12 DD] |  | 372
11 | NC(=O)[C@H]1CCC[C@@H]1NC(=O)[C@H]1CCC[C@@H]1NC(=O)C[C@H](CCC(=O)O)NC(=O)[C@H]1CCC[C@@H]1NC(=O)[C@H]1CCC[C@@H]1NC(=O)C[C@H](CC(=O)O)NC(=O)[C@H]1CCC[C@@H]1NC(=O)[C@H]1CCC[C@@H]1N [H12 DE] |  | 238
12 | NC(=O)[C@H]1CCC[C@@H]1NC(=O)[C@H]1CCC[C@@H]1NC(=O)C[C@H](Cc1ccccc1)NC(=O)[C@H]1CCC[C@@H]1NC(=O)[C@H]1CCC[C@@H]1NC(=O)C[C@H](CC(=O)O)NC(=O)[C@H]1CCC[C@@H]1NC(=O)[C@H]1CCC[C@@H]1N [H12 DF] |  | 254
13 | NCCCC[C@@H](CC(=O)N[C@H]1CCC[C@@H]1C(=O)N[C@H]1CCC[C@@H]1C(N)=O)NC(=O)[C@H]1CCC[C@@H]1NC(=O)[C@H]1CCC[C@@H]1NC(=O)C[C@H](CC(=O)O)NC(=O)[C@H]1CCC[C@@H]1NC(=O)[C@H]1CCC[C@@H]1N [H12 DK] |  | 173
14 | CSCC[C@@H](CC(=O)N[C@H]1CCC[C@@H]1C(=O)N[C@H]1CCC[C@@H]1C(N)=O)NC(=O)[C@H]1CCC[C@@H]1NC(=O)[C@H]1CCC[C@@H]1NC(=O)C[C@H](CC(=O)O)NC(=O)[C@H]1CCC[C@@H]1NC(=O)[C@H]1CCC[C@@H]1N [H12 DM] |  | 218
15 | NC(=O)C[C@@H](CC(=O)N[C@H]1CCC[C@@H]1C(=O)N[C@H]1CCC[C@@H]1C(N)=O)NC(=O)[C@H]1CCC[C@@H]1NC(=O)[C@H]1CCC[C@@H]1NC(=O)C[C@H](CC(=O)O)NC(=O)[C@H]1CCC[C@@H]1NC(=O)[C@H]1CCC[C@@H]1N [H12 DN] |  | 226
16 | NC(=O)CC[C@@H](CC(=O)N[C@H]1CCC[C@@H]1C(=O)N[C@H]1CCC[C@@H]1C(N)=O)NC(=O)[C@H]1CCC[C@@H]1NC(=O)[C@H]1CCC[C@@H]1NC(=O)C[C@H](CC(=O)O)NC(=O)[C@H]1CCC[C@@H]1NC(=O)[C@H]1CCC[C@@H]1N [H12 DQ] |  | 244
17 | NC(=O)[C@H]1CCC[C@@H]1NC(=O)[C@H]1CCC[C@@H]1NC(=O)C[C@H](CO)NC(=O)[C@H]1CCC[C@@H]1NC(=O)[C@H]1CCC[C@@H]1NC(=O)C[C@H](CC(=O)O)NC(=O)[C@H]1CCC[C@@H]1NC(=O)[C@H]1CCC[C@@H]1N [H12 DS] |  | 199
18 | C[C@@H](O)[C@@H](CC(=O)N[C@H]1CCC[C@@H]1C(=O)N[C@H]1CCC[C@@H]1C(N)=O)NC(=O)[C@H]1CCC[C@@H]1NC(=O)[C@H]1CCC[C@@H]1NC(=O)C[C@H](CC(=O)O)NC(=O)[C@H]1CCC[C@@H]1NC(=O)[C@H]1CCC[C@@H]1N [H12 DT] |  | 398
19 | CC(C)[C@@H](CC(=O)N[C@H]1CCC[C@@H]1C(=O)N[C@H]1CCC[C@@H]1C(N)=O)NC(=O)[C@H]1CCC[C@@H]1NC(=O)[C@H]1CCC[C@@H]1NC(=O)C[C@H](CC(=O)O)NC(=O)[C@H]1CCC[C@@H]1NC(=O)[C@H]1CCC[C@@H]1N [H12 DV] |  | 270
20 | NC(=O)[C@H]1CCC[C@@H]1NC(=O)[C@H]1CCC[C@@H]1NC(=O)C[C@H](Cc1c[nH]c2ccccc12)NC(=O)[C@H]1CCC[C@@H]1NC(=O)[C@H]1CCC[C@@H]1NC(=O)C[C@H](CC(=O)O)NC(=O)[C@H]1CCC[C@@H]1NC(=O)[C@H]1CCC[C@@H]1N [H12 DW] |  | 240
21 | NC(=O)[C@H]1CCC[C@@H]1NC(=O)[C@H]1CCC[C@@H]1NC(=O)C[C@H](Cc1ccc(O)cc1)NC(=O)[C@H]1CCC[C@@H]1NC(=O)[C@H]1CCC[C@@H]1NC(=O)C[C@H](CC(=O)O)NC(=O)[C@H]1CCC[C@@H]1NC(=O)[C@H]1CCC[C@@H]1N [H12 DY] |  | 205
22 | C[C@@H](CC(=O)N[C@H]1CCC[C@@H]1C(=O)N[C@H]1CCC[C@@H]1C(N)=O)NC(=O)[C@H]1CCC[C@@H]1NC(=O)[C@H]1CCC[C@@H]1NC(=O)C[C@H](CCC(=O)O)NC(=O)[C@H]1CCC[C@@H]1NC(=O)[C@H]1CCC[C@@H]1N [H12 EA] |  | 340
23 | NC(=O)[C@H]1CCC[C@@H]1NC(=O)[C@H]1CCC[C@@H]1NC(=O)C[C@H](CC(=O)O)NC(=O)[C@H]1CCC[C@@H]1NC(=O)[C@H]1CCC[C@@H]1NC(=O)C[C@H](CCC(=O)O)NC(=O)[C@H]1CCC[C@@H]1NC(=O)[C@H]1CCC[C@@H]1N [H12 ED] |  | 238
24 | NC(=O)[C@H]1CCC[C@@H]1NC(=O)[C@H]1CCC[C@@H]1NC(=O)C[C@H](CCC(=O)O)NC(=O)[C@H]1CCC[C@@H]1NC(=O)[C@H]1CCC[C@@H]1NC(=O)C[C@H](CCC(=O)O)NC(=O)[C@H]1CCC[C@@H]1NC(=O)[C@H]1CCC[C@@H]1N [H12 EE] |  | 349
25 | NC(=O)[C@H]1CCC[C@@H]1NC(=O)[C@H]1CCC[C@@H]1NC(=O)C[C@H](Cc1ccccc1)NC(=O)[C@H]1CCC[C@@H]1NC(=O)[C@H]1CCC[C@@H]1NC(=O)C[C@H](CCC(=O)O)NC(=O)[C@H]1CCC[C@@H]1NC(=O)[C@H]1CCC[C@@H]1N [H12 EF] |  | 245

Source: paper PMC8162404, “Proteomimetic surface fragments distinguish targets by function” (Chemical Science, 2020)
